We go through seven molecules from US9340590B2 (priority 2011, dated 2016).

Assay in all cases: cell-based
For assay [1], the target named is T1, hNav1.5 (Homo sapiens, UniProt Q14524).
Another assay addresses hNav1.3 (Homo sapiens, UniProt Q9NY46). In kind it is cell-based. The note with it: for IC50: Nav1.3 Use IC50.
Assay [2] deals with T2, hNav1.7 (Homo sapiens, UniProt Q15858). The class given is cell-based. The note with it: IonWorks Quattro; clamped to −110 mV, depolarized to −10 mV, 5 min after compound; n=2; read-out: IWQ Use Nav1.7. In general terms: The patch-clamp technique gives a direct electrical read-out from membranes.
T2 sequence (Q15858 whole entry, looked up): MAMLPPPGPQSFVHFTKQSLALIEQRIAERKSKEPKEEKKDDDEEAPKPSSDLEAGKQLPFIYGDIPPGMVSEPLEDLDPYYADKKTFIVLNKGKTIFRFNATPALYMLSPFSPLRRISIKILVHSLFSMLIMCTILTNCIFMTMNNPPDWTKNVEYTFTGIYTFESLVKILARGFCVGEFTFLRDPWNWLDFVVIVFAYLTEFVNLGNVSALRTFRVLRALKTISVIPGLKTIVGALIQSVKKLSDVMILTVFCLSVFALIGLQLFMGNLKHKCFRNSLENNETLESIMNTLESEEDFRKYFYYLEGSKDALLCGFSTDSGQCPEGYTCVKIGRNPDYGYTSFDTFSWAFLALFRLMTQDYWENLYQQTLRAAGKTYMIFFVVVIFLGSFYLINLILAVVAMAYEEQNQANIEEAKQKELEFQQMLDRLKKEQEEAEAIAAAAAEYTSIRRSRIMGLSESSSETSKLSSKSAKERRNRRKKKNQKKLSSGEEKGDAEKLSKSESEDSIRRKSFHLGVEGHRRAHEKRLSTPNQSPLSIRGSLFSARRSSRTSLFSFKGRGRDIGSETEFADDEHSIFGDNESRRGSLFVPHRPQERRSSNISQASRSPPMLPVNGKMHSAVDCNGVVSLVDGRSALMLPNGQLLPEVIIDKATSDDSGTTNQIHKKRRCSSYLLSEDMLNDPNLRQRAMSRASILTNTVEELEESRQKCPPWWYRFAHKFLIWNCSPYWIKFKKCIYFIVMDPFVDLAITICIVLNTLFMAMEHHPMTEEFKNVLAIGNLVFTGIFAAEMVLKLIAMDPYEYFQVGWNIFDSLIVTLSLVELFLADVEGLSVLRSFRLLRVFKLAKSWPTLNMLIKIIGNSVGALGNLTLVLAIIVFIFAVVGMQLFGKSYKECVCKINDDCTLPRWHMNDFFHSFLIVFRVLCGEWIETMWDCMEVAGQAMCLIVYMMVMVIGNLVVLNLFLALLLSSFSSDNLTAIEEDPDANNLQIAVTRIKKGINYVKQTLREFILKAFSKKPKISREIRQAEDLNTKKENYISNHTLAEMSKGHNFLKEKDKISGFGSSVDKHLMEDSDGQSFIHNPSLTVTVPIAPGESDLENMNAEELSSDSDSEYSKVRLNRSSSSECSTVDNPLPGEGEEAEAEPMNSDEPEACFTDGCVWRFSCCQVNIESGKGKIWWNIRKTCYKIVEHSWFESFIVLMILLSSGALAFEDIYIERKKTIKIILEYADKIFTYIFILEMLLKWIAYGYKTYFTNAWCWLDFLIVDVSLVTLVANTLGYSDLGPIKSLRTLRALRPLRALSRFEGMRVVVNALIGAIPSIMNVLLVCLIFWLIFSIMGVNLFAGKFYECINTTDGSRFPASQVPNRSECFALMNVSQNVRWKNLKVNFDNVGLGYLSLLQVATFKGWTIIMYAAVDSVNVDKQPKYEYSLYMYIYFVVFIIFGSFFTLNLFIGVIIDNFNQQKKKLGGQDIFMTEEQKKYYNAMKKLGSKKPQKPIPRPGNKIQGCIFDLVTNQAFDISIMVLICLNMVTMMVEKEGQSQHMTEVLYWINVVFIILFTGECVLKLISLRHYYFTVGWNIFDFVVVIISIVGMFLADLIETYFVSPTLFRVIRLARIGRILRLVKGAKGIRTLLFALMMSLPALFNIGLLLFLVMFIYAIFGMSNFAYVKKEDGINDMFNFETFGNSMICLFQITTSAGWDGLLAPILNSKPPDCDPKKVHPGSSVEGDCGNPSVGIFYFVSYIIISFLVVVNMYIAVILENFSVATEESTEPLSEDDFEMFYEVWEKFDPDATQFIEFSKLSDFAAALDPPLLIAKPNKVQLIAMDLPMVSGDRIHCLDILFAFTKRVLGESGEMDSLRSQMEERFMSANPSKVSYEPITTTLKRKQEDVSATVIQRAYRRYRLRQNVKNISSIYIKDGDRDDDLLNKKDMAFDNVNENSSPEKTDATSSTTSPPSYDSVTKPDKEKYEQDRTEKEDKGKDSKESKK
Assay [3] has as its target T1, hNav1.5. As to conditions: IonWorks Quattro; clamped to −110 mV, depolarized to −10 mV, 5 min after compound; n=2; read-out: IWQ Use Nav1.5.
Assay [4] deals with T2, hNav1.7. As to conditions: Nav1.7 Use IC50.

Read-outs that look alike come from different tables or passages of the source. Positions of bridges follow the written chain, without caps; N, C: chain ends. Non-standard residues stand in square brackets, D forms with d. Residues, ends and D or L forms follow the SMILES beside them. Phe(4-I) = N[C@@H](Cc1ccc(I)cc1)C(=O)O Where only a bound is given, the exact number is not on record here.

hNav1.3, sequence (Q9NY46 whole entry, looked up): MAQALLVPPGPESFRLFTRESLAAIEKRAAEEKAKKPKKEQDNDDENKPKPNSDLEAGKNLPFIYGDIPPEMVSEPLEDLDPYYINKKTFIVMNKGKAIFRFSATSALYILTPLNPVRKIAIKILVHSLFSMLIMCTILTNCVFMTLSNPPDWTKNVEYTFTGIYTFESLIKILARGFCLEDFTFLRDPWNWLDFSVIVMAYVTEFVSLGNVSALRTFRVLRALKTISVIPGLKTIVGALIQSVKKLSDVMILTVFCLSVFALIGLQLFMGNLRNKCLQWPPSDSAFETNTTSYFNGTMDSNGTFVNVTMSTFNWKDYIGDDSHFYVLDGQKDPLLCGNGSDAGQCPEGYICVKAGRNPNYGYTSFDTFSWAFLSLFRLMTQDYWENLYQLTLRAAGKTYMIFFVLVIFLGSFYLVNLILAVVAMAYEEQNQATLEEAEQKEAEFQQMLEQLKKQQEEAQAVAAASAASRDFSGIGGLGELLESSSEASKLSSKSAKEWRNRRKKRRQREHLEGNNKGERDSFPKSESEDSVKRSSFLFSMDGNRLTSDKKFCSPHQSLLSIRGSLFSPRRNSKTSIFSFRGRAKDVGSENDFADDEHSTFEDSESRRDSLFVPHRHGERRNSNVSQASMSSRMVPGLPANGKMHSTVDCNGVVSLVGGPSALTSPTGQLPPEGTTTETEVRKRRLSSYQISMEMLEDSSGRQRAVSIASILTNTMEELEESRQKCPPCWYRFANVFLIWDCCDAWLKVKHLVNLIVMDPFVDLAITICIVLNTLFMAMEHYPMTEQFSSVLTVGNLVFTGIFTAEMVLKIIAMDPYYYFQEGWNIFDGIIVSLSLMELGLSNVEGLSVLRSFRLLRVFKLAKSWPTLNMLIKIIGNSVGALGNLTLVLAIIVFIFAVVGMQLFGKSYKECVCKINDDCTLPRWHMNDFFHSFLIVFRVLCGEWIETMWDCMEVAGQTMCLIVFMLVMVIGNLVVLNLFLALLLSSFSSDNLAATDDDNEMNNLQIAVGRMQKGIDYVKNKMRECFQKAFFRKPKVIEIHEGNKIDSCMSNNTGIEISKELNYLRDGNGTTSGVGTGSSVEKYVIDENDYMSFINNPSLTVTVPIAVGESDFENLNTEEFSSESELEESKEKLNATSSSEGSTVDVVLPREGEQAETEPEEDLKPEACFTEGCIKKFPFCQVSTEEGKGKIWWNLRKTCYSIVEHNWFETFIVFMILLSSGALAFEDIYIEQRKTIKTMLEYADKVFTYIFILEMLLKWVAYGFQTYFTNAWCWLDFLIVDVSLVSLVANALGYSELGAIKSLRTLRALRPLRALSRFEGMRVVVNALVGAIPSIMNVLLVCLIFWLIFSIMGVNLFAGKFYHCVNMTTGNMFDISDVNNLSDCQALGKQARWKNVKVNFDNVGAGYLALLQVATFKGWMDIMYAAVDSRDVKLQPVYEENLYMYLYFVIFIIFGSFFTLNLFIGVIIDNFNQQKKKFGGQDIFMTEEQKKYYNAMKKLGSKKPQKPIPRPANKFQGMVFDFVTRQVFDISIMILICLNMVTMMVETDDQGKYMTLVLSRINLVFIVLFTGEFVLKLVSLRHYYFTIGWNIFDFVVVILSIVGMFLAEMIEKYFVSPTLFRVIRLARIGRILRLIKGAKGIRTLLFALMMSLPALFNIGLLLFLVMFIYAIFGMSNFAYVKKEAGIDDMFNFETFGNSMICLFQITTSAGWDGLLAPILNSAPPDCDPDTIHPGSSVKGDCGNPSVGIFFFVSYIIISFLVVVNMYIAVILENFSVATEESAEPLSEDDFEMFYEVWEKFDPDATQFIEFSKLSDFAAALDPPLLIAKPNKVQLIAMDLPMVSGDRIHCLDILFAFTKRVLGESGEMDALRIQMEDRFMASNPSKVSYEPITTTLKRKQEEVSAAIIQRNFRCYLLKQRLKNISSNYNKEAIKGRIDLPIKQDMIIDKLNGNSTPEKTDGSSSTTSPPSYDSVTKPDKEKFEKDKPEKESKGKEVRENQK

For the molecule `CC[C@H](C)[C@@H]1NC(=O)[C@@H]2CSSC[C@@H]3NC(=O)[C@H](C(C)C)NC(=O)[C@H](CC(C)C)NC(=O)[C@H](CC(N)=O)NC(=O)[C@@H]4CCCN4C(=O)[C@H](CCCNC(=N)N)NC(=O)[C@H](CSSC[C@H](NC(=O)[C@@H](N)CC(=O)O)C(=O)N[C@@H](CC(C)C)C(=O)NCC(=O)N[C@@H](Cc4ccc(-c5ccccc5)cc4)C(=O)N[C@@H](CCSC)C(=O)N[C@@H](CCCNC(=N)N)C(=O)N[C@@H](CCCCN)C(=O)N2)NC(=O)[C@H](CSSC[C@@H](C(=O)N[C@@H](CCCCN)C(=O)N[C@@H](Cc2ccc(O)cc2)C(=O)N[C@H](C(=O)N[C@@H](Cc2ccccc2)C(N)=O)C(C)C)NC(=O)[C@H](Cc2c[nH]c4ccccc24)NC(=O)[C@H](CCCCN)NC(=O)[C@H](Cc2c[nH]cn2)NC(=O)[C@H]([C@@H](C)O)NC(=O)[C@H](CCCNC(=N)N)NC(=O)[C@H](CO)NC3=O)NC(=O)[C@H](CCCCN)NC(=O)[C@H](CC(=O)O)NC(=O)[C@H](CC(N)=O)NC(=O)[C@H](CC(=O)O)NC(=O)[C@@H]2CCCN2C1=O` [SEQ ID NO: 242], the IC50 on hNav1.5 [1] (read-out: Nav1.5 Use IC50) turned out to be 2080 nM; at hNav1.3 it was 3 nM; on hNav1.7 [2], 60 nM; on hNav1.5 [3], 3380 nM; against hNav1.7 [4], 62 nM. The “potency against NaV1.3, in words” value at hNav1.3 is “increased potency”.
As to `CC[C@H](C)[C@@H]1NC(=O)[C@@H]2CSSC[C@@H]3NC(=O)[C@H](C(C)C)NC(=O)[C@H](CC(C)C)NC(=O)[C@H](CC(N)=O)NC(=O)[C@@H]4CCCN4C(=O)[C@H](CCCNC(=N)N)NC(=O)[C@H](CSSC[C@H](NC(=O)[C@@H](N)CC(=O)O)C(=O)N[C@@H](CC(C)C)C(=O)NCC(=O)N[C@@H](Cc4ccccc4)C(=O)N[C@@H](CC4CCCCC4)C(=O)N[C@@H](CCCNC(=N)N)C(=O)N[C@@H](CCCCN)C(=O)N2)NC(=O)[C@H](CSSC[C@@H](C(=O)N[C@@H](CCCCN)C(=O)N[C@@H](Cc2ccc(O)cc2)C(=O)N[C@H](C(=O)N[C@@H](Cc2ccccc2)C(N)=O)C(C)C)NC(=O)[C@H](Cc2c[nH]c4ccccc24)NC(=O)[C@H](CCCCN)NC(=O)[C@H](Cc2cnc[nH]2)NC(=O)[C@H]([C@@H](C)O)NC(=O)[C@H](CCCNC(=N)N)NC(=O)[C@H](CO)NC3=O)NC(=O)[C@H](CCCCN)NC(=O)[C@H](CC(=O)O)NC(=O)[C@H](CC(N)=O)NC(=O)[C@H](CC(=O)O)NC(=O)[C@@H]2CCCN2C1=O` [SEQ ID NO: 245], the IC50 at hNav1.5 [1] turned out to be 2680 nM; against hNav1.3 it was 2 nM; at hNav1.7 [2], 20 nM; on hNav1.5 [3] it was 2370 nM; on hNav1.7 [4] it was 3 nM.
Take `CC[C@H](C)[C@H](NC(=O)[C@H](Cc1ccc(O)cc1)NC(=O)[C@H](CCCCN)NC(=O)[C@@H]1CSSC[C@@H]2NC(=O)[C@H](CCCCN)NC(=O)[C@H](CC(=O)O)NC(=O)[C@H](CC(N)=O)NC(=O)[C@H](CC(=O)O)NC(=O)[C@@H]3CCCN3C(=O)[C@H]([C@@H](C)CC)NC(=O)[C@@H]3CSSC[C@H](NC(=O)[C@H](C(C)C)NC(=O)[C@H](CC(C)C)NC(=O)[C@H](CC(N)=O)NC(=O)[C@@H]4CCCN4C(=O)[C@H](CCCNC(=N)N)NC(=O)[C@H](CSSC[C@H](NC(=O)[C@@H](N)CC(=O)O)C(=O)N[C@@H](CC(C)C)C(=O)NCC(=O)N[C@@H](Cc4ccccc4)C(=O)N[C@@H](CCSC)C(=O)N[C@@H](CCCNC(=N)N)C(=O)N[C@@H](CCCCN)C(=O)N3)NC2=O)C(=O)N[C@@H](CO)C(=O)N[C@@H](CCCNC(=N)N)C(=O)N[C@@H]([C@@H](C)O)C(=O)N[C@@H](Cc2c[nH]cn2)C(=O)N[C@@H](CCCCN)C(=O)N[C@@H](Cc2c[nH]c3ccccc23)C(=O)N1)C(=O)N[C@@H](Cc1ccccc1)C(N)=O` [[Ile33]GpTx-1(1-34)] (H-DCLGFMRKCIPDNDKCCRPNLVCSRTHKWCKYIF-NH2; disulfide 2-17, 9-23, 16-30): the IC50 on hNav1.5 [1] was above 10000 nM; against hNav1.3, 102 nM; at hNav1.7 [4] it was 37 nM.
On to `CC[C@H](C)[C@@H]1NC(=O)[C@@H]2CSSC[C@@H]3NC(=O)[C@H](C(C)C)NC(=O)[C@H](CC(C)C)NC(=O)[C@H](CC(N)=O)NC(=O)[C@@H]4CCCN4C(=O)[C@H](CCCNC(=N)N)NC(=O)[C@H](CSSC[C@H](NC(=O)[C@@H](N)CC(=O)O)C(=O)N[C@@H](CC(C)C)C(=O)NCC(=O)N[C@@H](Cc4ccccc4)C(=O)N[C@@H](CCSC)C(=O)N[C@@H](CCCNC(=N)N)C(=O)N[C@@H](CCCCN)C(=O)N2)NC(=O)[C@H](CSSC[C@@H](C(=O)N[C@@H](CCCCN)C(=O)N[C@@H](Cc2ccc(O)cc2)C(=O)N[C@H](C(=O)N[C@@H](Cc2ccccc2)C(N)=O)C(C)C)NC(=O)[C@H](Cc2c[nH]c4ccccc24)NC(=O)[C@H](CCCCN)NC(=O)[C@H](Cc2cnc[nH]2)NC(=O)[C@H](CC(C)C)NC(=O)[C@H](CCCNC(=N)N)NC(=O)[C@H](CO)NC3=O)NC(=O)[C@H](CCCCN)NC(=O)[C@H](CC(=O)O)NC(=O)[C@H](CC(N)=O)NC(=O)[C@H](CC(=O)O)NC(=O)[C@@H]2CCCN2C1=O` [[Leu26]GpTx-1(1-34)] (H-DCLGFMRKCIPDNDKCCRPNLVCSRLHKWCKYVF-NH2; disulfide 2-17, 9-23, 16-30), for which the IC50 against hNav1.5 [1] was found to be 5010 nM; on hNav1.3, 23 nM; at hNav1.7 [4], 3 nM.
As for `CC[C@H](C)[C@@H]1NC(=O)[C@@H]2CSSC[C@@H]3NC(=O)[C@H](C(C)C)NC(=O)[C@H](CC(C)C)NC(=O)[C@H](CC(N)=O)NC(=O)[C@@H]4CCCN4C(=O)[C@H](CCCNC(=N)N)NC(=O)[C@H](CSSC[C@H](NC(=O)[C@@H](N)CC(=O)O)C(=O)N[C@@H](CC(C)C)C(=O)NCC(=O)N[C@@H](Cc4ccccc4)C(=O)N[C@@H](CCSC)C(=O)N[C@@H](CCCNC(=N)N)C(=O)N[C@@H](CCCCN)C(=O)N2)NC(=O)[C@H](CSSC[C@@H](C(=O)N[C@@H](CCCCN)C(=O)N[C@@H](Cc2ccc(O)cc2)C(=O)N[C@H](C(=O)N[C@@H](Cc2ccccc2)C(N)=O)C(C)C)NC(=O)[C@H](Cc2c[nH]c4ccccc24)NC(=O)[C@H](CCCCN)NC(=O)[C@H]([C@@H](C)O)NC(=O)[C@H](CCCCN)NC(=O)[C@H](CCCNC(=N)N)NC(=O)[C@H](CO)NC3=O)NC(=O)[C@H](CCCCN)NC(=O)[C@H](CC(=O)O)NC(=O)[C@H](CC(N)=O)NC(=O)[C@H](CC(=O)O)NC(=O)[C@@H]2CCCN2C1=O` [[Lys26;Thr27]GpTx-1(1-34)] (H-DCLGFMRKCIPDNDKCCRPNLVCSRKTKWCKYVF-NH2; disulfide 2-17, 9-23, 16-30), the IC50 was determined as 1390 nM against hNav1.5 [1], 16 nM against hNav1.3 and 4 nM on hNav1.7 [4].
`CC[C@H](C)[C@@H]1NC(=O)[C@@H]2CSSC[C@@H]3NC(=O)[C@H](C(C)C)NC(=O)[C@H](CC(C)C)NC(=O)[C@H](CC(N)=O)NC(=O)[C@@H]4CCCN4C(=O)[C@H](Cc4c[nH]c5ccccc45)NC(=O)[C@H](CSSC[C@H](NC(=O)[C@@H](N)CC(=O)O)C(=O)N[C@@H](CC(C)C)C(=O)NCC(=O)N[C@@H](Cc4ccccc4)C(=O)N[C@@H](CCSC)C(=O)N[C@@H](CCCNC(=N)N)C(=O)N[C@@H](CCCCN)C(=O)N2)NC(=O)[C@H](CSSC[C@@H](C(=O)N[C@@H](CCCCN)C(=O)N[C@@H](Cc2ccc(O)cc2)C(=O)N[C@H](C(=O)N[C@@H](Cc2ccccc2)C(N)=O)C(C)C)NC(=O)[C@H](Cc2c[nH]c4ccccc24)NC(=O)[C@H](CCCCN)NC(=O)[C@H](Cc2c[nH]cn2)NC(=O)[C@H]([C@@H](C)O)NC(=O)[C@H](CCCNC(=N)N)NC(=O)[C@H](CO)NC3=O)NC(=O)[C@H](CCCCN)NC(=O)[C@H](CC(=O)O)NC(=O)[C@H](CC(N)=O)NC(=O)[C@H](CC(=O)O)NC(=O)[C@@H]2CCCN2C1=O` [[Trp18]GpTx-1(1-34)] (H-DCLGFMRKCIPDNDKCCWPNLVCSRTHKWCKYVF-NH2; disulfide 2-17, 9-23, 16-30): the IC50 was above 10000 nM at hNav1.5 [1], 42 nM against hNav1.3 and 24 nM against hNav1.7 [4].
For `CC[C@H](C)[C@@H]1NC(=O)[C@@H]2CSSC[C@@H]3NC(=O)[C@H](C(C)C)NC(=O)[C@H](CC(C)C)NC(=O)[C@H](CC(N)=O)NC(=O)[C@@H]4CCCN4C(=O)[C@H](CCCNC(=N)N)NC(=O)[C@H](CSSC[C@H](NC(=O)[C@@H](N)CC(=O)O)C(=O)N[C@@H](CC(C)C)C(=O)NCC(=O)N[C@@H](Cc4ccccc4)C(=O)N[C@@H](CCSC)C(=O)N[C@@H](CCCNC(=N)N)C(=O)N[C@@H](CCCCN)C(=O)N2)NC(=O)[C@H](CSSC[C@@H](C(=O)N[C@@H](CCCCN)C(=O)N[C@@H](Cc2ccc(O)cc2)C(=O)N[C@@H](Cc2ccc(I)cc2)C(=O)N[C@@H](Cc2ccccc2)C(N)=O)NC(=O)[C@H](Cc2c[nH]c4ccccc24)NC(=O)[C@H](CCCCN)NC(=O)[C@H](Cc2c[nH]cn2)NC(=O)[C@H]([C@@H](C)O)NC(=O)[C@H](CCCNC(=N)N)NC(=O)[C@H](CO)NC3=O)NC(=O)[C@H](CCCCN)NC(=O)[C@H](CC(=O)O)NC(=O)[C@H](CC(N)=O)NC(=O)[C@H](CC(=O)O)NC(=O)[C@@H]2CCCN2C1=O` [[pI-Phe33]GpTx-1(1-34)] (H-DCLGFMRKCIPDNDKCCRPNLVCSRTHKWCKY[Phe(4-I)]F-NH2; disulfide 2-17, 9-23, 16-30), in that order: 10400 nM, 35 nM and 26 nM.
